Key:
system Xc^− [1] = biological target: T1, system Xc^− (Homo sapiens, UniProt Q9UPY5); assay: [^14C]L-Cystine uptake assay; assay type: cell-based; design: endogenous in cells; host or cells: H4 cells; details: H4 cells, sodium-free HEPES buffer, 0.5 μM L-[14C]Cystine and 4.5 μM L-Cystine, 1 hour at 37° C.; read-out: pIC50 [^14C] L-Cystine uptake assay (converted)
T1 sequence (Q9UPY5 1-501): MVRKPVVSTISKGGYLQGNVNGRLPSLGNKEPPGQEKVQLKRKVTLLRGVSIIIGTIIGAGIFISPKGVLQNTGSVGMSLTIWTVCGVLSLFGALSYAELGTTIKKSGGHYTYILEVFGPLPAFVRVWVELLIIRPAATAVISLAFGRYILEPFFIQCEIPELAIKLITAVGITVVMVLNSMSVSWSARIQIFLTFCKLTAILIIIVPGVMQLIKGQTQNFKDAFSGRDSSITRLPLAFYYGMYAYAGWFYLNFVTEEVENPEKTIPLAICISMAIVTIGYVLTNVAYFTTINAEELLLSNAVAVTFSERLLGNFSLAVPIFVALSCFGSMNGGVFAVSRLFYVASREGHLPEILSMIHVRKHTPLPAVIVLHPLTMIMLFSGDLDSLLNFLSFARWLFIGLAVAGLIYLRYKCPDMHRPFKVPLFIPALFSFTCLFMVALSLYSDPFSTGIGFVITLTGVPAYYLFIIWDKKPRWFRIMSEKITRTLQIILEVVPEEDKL
T1 sequence (P08195 1-529 partner): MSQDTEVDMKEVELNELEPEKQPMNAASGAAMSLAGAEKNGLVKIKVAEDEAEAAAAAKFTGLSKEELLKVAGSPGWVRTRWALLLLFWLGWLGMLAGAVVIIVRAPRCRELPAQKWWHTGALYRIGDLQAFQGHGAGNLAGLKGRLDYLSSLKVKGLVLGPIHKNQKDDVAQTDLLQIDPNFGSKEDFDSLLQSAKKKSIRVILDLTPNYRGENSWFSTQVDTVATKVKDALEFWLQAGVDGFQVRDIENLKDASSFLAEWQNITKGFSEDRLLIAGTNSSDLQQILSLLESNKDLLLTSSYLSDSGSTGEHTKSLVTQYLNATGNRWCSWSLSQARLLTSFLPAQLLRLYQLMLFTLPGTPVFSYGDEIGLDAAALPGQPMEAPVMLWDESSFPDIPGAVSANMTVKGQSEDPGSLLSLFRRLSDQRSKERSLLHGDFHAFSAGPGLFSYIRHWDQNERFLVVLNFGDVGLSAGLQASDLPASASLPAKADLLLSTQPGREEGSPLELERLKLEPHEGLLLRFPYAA
Procedure, shortened: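 H4 cells at 5×10^4 cells/well in sodium-free HEPES buffer were preincubated 15 min with compounds (1% DMSO). Uptake of 0.5 μM [14C]L-cystine plus 4.5 μM unlabelled L-cystine ran 1 hour at 37° C on scintillating plates. IC50 was set between 1% DMSO and 50 μM Erastin controls and expressed as pIC50.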

system Xc^− [2] = biological target: T1, system Xc^−; assay: Cystine-induced glutamate release assay; assay type: cell-based; design: endogenous in cells; host or cells: H4 cells; details: H4 cells, sodium-free HEPES buffer, 50 μM L-Cystine, 2 hours, Amplex Red glutamate readout; read-out: pIC50 Cystine-induced glutamate release assay (converted)
Procedure, shortened: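 H4 cells in sodium-free HEPES buffer (pH 7.4), 2 days after plating; glutamate release induced with 50 μM L-cystine plus compound (1% DMSO), 2 h at 37 °C. Supernatant glutamate measured by Amplex Red fluorescence; IC50/pIC50 derived between 1% DMSO and 50 μM erastin controls.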

| IC50 (system Xc^− [1]) [nM] | IC50 (system Xc^− [2]) [nM] | Compound |
| --- | --- | --- |
| < 15.8 | 15.8 to 39.8 | COc1nc(C)cc2c1-c1cccnc1C(C)C(=O)N2CC(=O)Nc1ccc(C(F)(F)F)cc1 (stereo not drawn) [#81, 2-(3-methoxy-5,10-dimethyl-9-oxo-4,8,12-triazatricyclo[9.4.0.0^2,7]pentadeca-1(11),2,4,6, 12,14-hexaen-8-yl)-N-[4-(trifluoromethyl)-phenyl]acetamide] |
| < 15.8 | < 15.8 | Cc1cc2c(cn1)-c1ccc(F)cc1C(C)C(=O)N2CC(=O)Nc1ccc(C(F)F)cc1 (single isomer, unassigned) [#323, N-[4-(difluoromethyl)phenyl]-2-[9-fluoro-3,7-dimethyl-6-oxo-7H-pyrido[3,4-a][3]benzazepin-5-yl]acetamide] |
| 15.8 to 39.8 | 15.8 to 39.8 | COc1cc2c(c(F)n1)-c1cccnc1C(C)C(=O)N2CC(=O)Nc1ccc(C(F)(F)F)cc1 (stereo not drawn) [#182, 2-(3-fluoro-5-methoxy-10-methyl-9-oxo-4,8,12-triazatricyclo[9.4.0.0^2,7]pentadeca-1(11),2(7),3,5,12,14-hexaen-8-yl)-N-[4-(trifluoromethyl)phenyl]acetamide] |
| < 15.8 | < 15.8 | Cc1cc2c(cn1)-c1cccnc1C(C)C(=O)N2CC(=O)Nc1ccc(Cl)c(F)c1 (single isomer, unassigned) [#251, N-(4-chloro-3-fluoro-phenyl)-2-[5,10-dimethyl-9-oxo-4,8,12-triazatricyclo[9.4.0.0^2,7]pentadeca-1(15),2,4,6,11,13-hexaen-8-yl]acetamide] |
| 39.8 to 100 | 15.8 to 39.8 | COc1cc2c(c(OC)n1)-c1cccnc1C(C)C(=O)N2CC(=O)Nc1ccc(C(F)(F)F)cn1 (single isomer, unassigned) [#336, 2-[3,5-dimethoxy-10-methyl-9-oxo-4,8,12-triazatricyclo[9.4.0.0^2,7]pentadeca-1(15),2(7),3,5,11,13-hexaen-8-yl]-N-[5-(trifluoromethyl)-2-pyridyl]acetamide] |
| 39.8 to 100 | 39.8 to 100 | CN1CC(c2cc3c(c(Cl)n2)-c2cccnc2CC(=O)N3CC(=O)Nc2ccc(C(F)(F)F)cc2)C1 [#170, 2-[3-chloro-5-(1-methylazetidin-3-yl)-9-oxo-4,8,12-triazatricyclo[9.4.0.0^2,7]pentadeca-1(11),2(7),3,5,12,14-hexaen-8-yl]-N-[4-(trifluoromethyl)phenyl]acetamide] |
| < 15.8 | 15.8 to 39.8 | CO[C@H]1C(=O)N(CC(=O)Nc2ccc(C(F)(F)F)cc2)c2cc(C)nc(Cl)c2-c2ccccc21 (single isomer, unassigned) [#199, Entnaiomer (7R) or (7S) of 2-[1-chloro-7-methoxy-3-methyl-6-oxo-7H-pyrido[4,3-d][3]benzazepin-5-yl]-N-[4-(trifluoromethyl)phenyl]acetamide] |
| 15.8 to 39.8 | 15.8 to 39.8 | Cc1cc2c(cn1)-c1cncnc1C(C)C(=O)N2CC(=O)Nc1ccc(Cl)c(F)c1 (single isomer, unassigned) [#369, N-(4-chloro-3-fluoro-phenyl)-2-[8,13-dimethyl-9-oxo-4,6,10,14-tetrazatricyclo[9.4.0.0^2,7]pentadeca-1(15),2,4,6,11,13-hexaen-10-yl]acetamide] |
| 15.8 to 39.8 | 15.8 to 39.8 | CC1C(=O)N(CC(=O)Nc2ccc(Cl)c(F)c2)c2cc(F)cc(F)c2-c2cccnc21 (single isomer, unassigned) [#406, N-(4-chloro-3-fluoro-phenyl)-2-[9,11-difluoro-5-methyl-6-oxo-5H-pyrido[2,3-d][1]benzazepin-7-yl]acetamide] |
| 100 to 501 | 100 to 501 | Cc1cc2c(c(C3CC3)n1)-c1ccccc1CC(=O)N2CC(=O)Nc1ccc(C(F)(F)F)cc1 [#73, 2-(1-cyclopropyl-3-methyl-6-oxo-7H-pyrido[4,3-d][3]benzazepin-5-yl)-N-[4-(trifluoromethyl)phenyl]acetamide] |
| 15.8 to 39.8 | 39.8 to 100 | COc1nc(C)cc2c1-c1cncnc1CC(=O)N2CC(=O)Nc1ccc(C(F)(F)F)cc1 [#98, 2-(15-methoxy-13-methyl-9-oxo-4,6,10,14-tetrazatricyclo[9.4.0.0^2,7]pentadeca-1(15),2(7),3,5,11,13-hexaen-10-yl)-N-[4-(trifluoromethyl)phenyl]acetamide] |
| 15.8 to 39.8 | 15.8 to 39.8 | Cc1cc2c(c(Cl)n1)-c1cncnc1C(C)C(=O)N2CC(=O)Nc1ccc(C(F)(F)F)cc1 (stereo not drawn) [#163, 2-(15-chloro-8,13-dimethyl-9-oxo-4,6,10,14-tetrazatricyclo[9.4.0.0^2,7]pentadeca-1(11),2(7),3,5,12,14-hexaen-10-yl)-N-[4-(trifluoromethyl)phenyl]acetamide] |
| 39.8 to 100 | 15.8 to 39.8 | Cc1c2c(cc(=O)n1C)N(CC(=O)Nc1ccc(Cl)c(F)c1)C(=O)C(C)c1ccccc1-2 (stereo not drawn) [#355, N-(4-chloro-3-fluoro-phenyl)-2-(1,2,7-trimethyl-3,6-dioxo-7H-pyrido[3,4-a][3]benzazepin-5-yl)acetamide] |
| 100 to 501 | 100 to 501 | Cc1cc2c(cn1)-c1cnccc1CC(=O)N2CC(=O)Nc1ccc(C(F)(F)F)cc1 [#6, 2-(5-methyl-9-oxo-4,8,14-triazatricyclo[9.4.0.0^2,7]pentadeca-1(11),2(7),3,5,12,14-hexaen-8-yl)-N-[4-(trifluoromethyl)phenyl]acetamide] |
| 15.8 to 39.8 | 15.8 to 39.8 | COc1cc2c(cn1)-c1cc(F)cnc1C(C)C(=O)N2CC(=O)Nc1ccc(Cl)c(F)c1 (single isomer, unassigned) [#410, N-(4-chloro-3-fluoro-phenyl)-2-[14-fluoro-5-methoxy-10-methyl-9-oxo-4,8,12-triazatricyclo[9.4.0.0^2,7]pentadeca-1(15),2(7),3,5,11,13-hexaen-8-yl]acetamide] |
| 39.8 to 100 | 100 to 501 | Cc1cc2c(c(CO)n1)-c1ccccc1CC(=O)N2CC(=O)Nc1ccc(C(F)(F)F)cc1 [#66, 2-[1-(hydroxymethyl)-3-methyl-6-oxo-7H-pyrido[4,3-d][3]benz-azepin-5-yl]-N-[4-(trifluoromethyl)phen-yl]acetamide] |
| 100 to 501 | 39.8 to 100 | COc1ncc2c(c1C)-c1cccnc1CC(=O)N2CC(=O)Nc1ccc(C(F)(F)F)cc1 [#67, 2-(4-methoxy-3-meth-yl-9-oxo-5,8,12-triaza-tricyclo[9.4.0.0^2,7]pentadeca-1(11),2(7), 3,5,12,14-hexaen-8-yl)-N-[4-(trifluoromethyl)-phenyl]acetamide] |
| < 15.8 | 15.8 to 39.8 | Cc1cc2c(c(C)n1)-c1cccc(F)c1CC(=O)N2CC(=O)Nc1ccc(C(F)(F)F)cc1 [#64, 2-(8-fluoro-1,3-dimeth-yl-6-oxo-7H-pyrido [4,3-d][3]benzazepin-5-yl)-N-[4-(trifluorometh-yl)phenyl]acetamide] |
| 39.8 to 100 | 39.8 to 100 | CC1C(=O)N(CC(=O)Nc2ccc(Cl)c(F)c2)c2ccnc(OC(F)F)c2-c2cccnc21 (stereo not drawn) [#412, N-(4-chloro-3-fluoro-phenyl)-2-[3-(difluoromethoxy)-10-methyl-9-oxo-4,8,12-triazatricyclo[9.4.0.0^2,7]pentadeca-1(15),2,4,6,11,13-hexaen-8-yl]acetamide] |
| 15.8 to 39.8 | 39.8 to 100 | Cc1cc2c(cn1)-c1cccc(F)c1CC(=O)N2CC(=O)Nc1ccc(C(F)(F)F)cc1 [#35, 2-(8-fluoro-3-methyl-6-oxo-7H-pyrido[4,3-d][3]benzazepin-5-yl)-N-[4-(trifluoro-methyl)phenyl] acetamide] |
| < 15.8 | < 15.8 | Cc1cc2c(cn1)-c1cc(F)cnc1C(C)C(=O)N2CC(=O)Nc1ccc(Cl)c(F)c1 (single isomer, unassigned) [#327, N-(4-chloro-3-fluoro-phenyl)-2-[14-fluoro-5,10-dimethyl-9-oxo-4,8,12-triazatricyclo[9.4.0.0^2,7]pentadeca-1(15),2,4,6,11,13-hexaen-8-yl]acetamide] |

From patent publication US20260217708A1, “FUSED BENZAZEPINE DERIVATIVES FOR USE IN THE TREATMENT OF CANCER AND EPILEPSY” (UCB BIOPHARMA SRL, priority 2023, published 2026)
